# Reference: paper PMC5642506 (Oncotarget, 2017)
# Read-outs that look alike come from different tables or passages of the source.
# How the values were obtained:
# [1] = system: pretreated nonsquamous lung cancer; parameters: method as in PMID 27697581; details: cited from earlier work
# [2] = Treatment delivery, dose intensity, discontinuation; type: in vivo, human (patients)
# Description: (§1) In this dose-finding phase I trial, escalating doses of foretinib were added to standard dose erlotinib as continuous daily dosing. Patients were permitted to remain on study treatment until the development of disease progression, unacceptable toxicity or withdrawal of consent. To facilitate pharmacokinetic studies and ensure tolerability of standard therapy, patients received erlotinib alone daily for 14 days during cycle 1, and foretinib was initiated on day 15, cycle 1 if erlotinib was well tolerated. Daily dosing for both agents thereafter was continuous.
# [3] = Pharmacokinetic analyses (plasma, non-compartmental); type: in vivo, human (patients)
# Description: Patients underwent history and physical examination, performance status, measurement of vital signs, routine hematology and biochemistry studies, thyroid studies and tumor imaging with computed tomography scans at baseline. Blood pressure monitoring and bloodwork was repeated weekly during cycle 1 and then on day 1 of each subsequent cycle. Patients were assessed on day 1 of each subsequent cycle and as needed for toxicity management. Tumor assessment with imaging was performed at every second cycle (8 weeks). Urinalysis was performed on day 1 of each cycle, ophthalmologic examination every 12 weeks, and pharmacokinetic sampling on day 14 and 28 of cycle 1.
# Patients were required not to smoke or chew tobacco products for at least 14 days prior to study entry, and to abstain at least until the completion of pharmacokinetic sampling on day 28 of cycle 1.
# [4] = system: pretreated EGFR wild type NSCLC; parameters: method as in PMID 27825638; details: cited from earlier work
# [5] = Dose escalation: DLT and recommended phase II dose; parameters: species or system human (patients); details: human, in vivo
# Description: as §1
# Toxicity was evaluated continuously according to the Common Terminology Criteria for Adverse Events (CTCAE), Version 4.0. […] If 1/3 experienced DLT, at least 3 additional patients were treated for a total of 6 evaluable patients treated at that dose level. If 2/3 or 2/6 patients experienced DLT, dose escalation was to be stopped and that dose declared the maximum tolerated dose (MTD), with the next lower dose to be declared the recommended phase II dose for foretinib in combination with erlotinib. While designed as a 3+3 dose escalation study, 3+4 was allowed to ensure that there would be a minimum of 3 evaluable patients without having to reopen a cohort to replace a patient. Intra-patient dose escalation was not allowed. […]
# [6] = system: EGFR mutant lung cancer cells with upregulated HGF and increased MET copy number; parameters: method as in earlier work; details: preclinical studies; cited from earlier work
# [7] = Erlotinib D14, DL1 erlotinib 100 mg daily alone, N=6
# [8] = Erlotinib D14, DL2 erlotinib 150 mg daily alone, N=9
# [9] = Erlotinib D14, DL3 erlotinib 150 mg daily alone, N=7
# [10] = Erlotinib D28, DL1 erlotinib 100 mg + foretinib 30 mg daily, N=7
# [11] = Erlotinib D28, DL2 erlotinib 150 mg + foretinib 30 mg daily, N=11
# [12] = Erlotinib D28, DL3 erlotinib 150 mg + foretinib 45 mg daily, N=6
# [13] = human, plasma, oral, 100 mg, Erlotinib D14, DL1 erlotinib 100 mg daily alone, N=6
# [14] = human, plasma, oral, 150 mg, Erlotinib D14, DL2 erlotinib 150 mg daily alone, N=9
# [15] = human, plasma, oral, 150 mg, Erlotinib D14, DL3 erlotinib 150 mg daily alone, N=7
# [16] = human, plasma, oral, Erlotinib D28, DL1 erlotinib 100 mg + foretinib 30 mg daily, N=7
# [17] = human, plasma, oral, Erlotinib D28, DL2 erlotinib 150 mg + foretinib 30 mg daily, N=11
# [18] = human, plasma, oral, Erlotinib D28, DL3 erlotinib 150 mg + foretinib 45 mg daily, N=6
# [19] = Foretinib D28, DL1 foretinib 30 mg + erlotinib 100 mg daily, N=7
# [20] = Foretinib D28, DL2 foretinib 30 mg + erlotinib 150 mg daily, N=11
# [21] = Foretinib D28, DL3 foretinib 45 mg + erlotinib 150 mg daily, N=6
# [22] = human, plasma, oral, Foretinib D28, DL1 foretinib 30 mg + erlotinib 100 mg daily, N=7
# [23] = human, plasma, oral, Foretinib D28, DL2 foretinib 30 mg + erlotinib 150 mg daily, N=11
# [24] = human, plasma, oral, Foretinib D28, DL3 foretinib 45 mg + erlotinib 150 mg daily, N=6
smiles,measurement,setting,value
C[C@@H](Oc1cc(-c2cnn(C3CCNCC3)c2)cnc1N)c1c(Cl)ccc(F)c1Cl [crizotinib],"RP2D, crizotinib","[1]; BID, plus erlotinib 100 mg daily",150 mg
C#Cc1cccc(Nc2ncnc3cc(OCCOC)c(OCCOC)cc23)c1 [erlotinib],"% receiving >=90% planned dose intensity, Erlotinib","[2]; DL1 (N=9), 30/100 mg",78%
same,"% receiving >=90% planned dose intensity, Erlotinib","[2]; DL2 (n=15), 30/150 mg",40%
same,"% receiving >=90% planned dose intensity, Erlotinib","[2]; DL3 (N=7), 45/150 mg",43%
same,Cavg,[3]; [7],1254 (SD 622) ng/mL
same,Clast,[3]; [7],1106 (SD 710) ng/mL
same,Cmax,[3]; [7],1719 (SD 624) ng/mL
same,Cmax Dose Norm,[3]; [7],17.2 (SD 6.24) ng/mL/mg
same,Cmin,[3]; [7],815 (SD 641) ng/mL
same,Tmin,[3]; [7],4.17 (SD 9.71) hr
same,Cavg,[3]; [8],1466 (SD 507) ng/mL
same,Clast,[3]; [8],1137 (SD 419) ng/mL
same,Cmax,[3]; [8],2335 (SD 770) ng/mL
same,Cmax Dose Norm,[3]; [8],15.6 (SD 5.13) ng/mL/mg
same,Cmin,[3]; [8],1047 (SD 437) ng/mL
same,Tmin,[3]; [8],13.33 (SD 12.65) hr
same,Cavg,[3]; [9],1548 (SD 621) ng/mL
same,Clast,[3]; [9],1247 (SD 565) ng/mL
same,Cmax Dose Norm,[3]; [9],14.91 (SD 4.14) ng/mL/mg
same,Cmin,[3]; [9],1027 (SD 507) ng/mL
same,Tmin,[3]; [9],4.71 (SD 8.77) hr
same,Cavg,[3]; [10],1497 (SD 975) ng/mL
same,Clast,[3]; [10],1300 (SD 861.44) ng/mL
same,Cmax,[3]; [10],2387 (SD 1707) ng/mL
same,Cmax Dose Norm,[3]; [10],23.87 (SD 17.07) ng/mL/mg
same,Cmin,[3]; [10],1092 (SD 894) ng/mL
same,Tmin,[3]; [10],11.2 (SD 12.07) hr
same,Cavg,[3]; [11],1579 (SD 643) ng/mL
same,Clast,[3]; [11],1343 (SD 687) ng/mL
same,Cmax Dose Norm,[3]; [11],17.64 (SD 6.49) ng/mL/mg
same,Cmin,[3]; [11],1293 (SD 688) ng/mL
same,Tmin,[3]; [11],13.27 (SD 12.34) hr
same,AUCt,[3]; [12],40765 (SD 16673) ng*hr/mL
same,Cavg,[3]; [12],1699 (SD 695) ng/mL
same,Clast,[3]; [12],1283 (SD 697) ng/mL
same,Cmax Dose Norm,[3]; [12],16.48 (SD 4.78) ng/mL/mg
same,Cmin,[3]; [12],1244 (SD 725) ng/mL
same,Tmin,[3]; [12],16.17 (SD 12.14) hr
same,AUC(0-t),[3]; [13],30100 ng·h/mL
same,Tmax,[3]; [13],7.67 h
same,clearance,[3]; [13],28.6 mL/min
same,AUC(0-t),[3]; [14],35200 ng·h/mL
same,Tmax,[3]; [14],2.22 h
same,clearance,[3]; [14],85.4 mL/min
same,AUC(0-t),[3]; [15],35500 ng·h/mL
same,Tmax,[3]; [15],3.86 h
same,clearance,[3]; [15],79.9 mL/min
same,Cmax,"[3]; human, plasma, oral, 150 mg, Erlotinib D14, DL3 erlotinib 150 mg daily alone, N=7, read-out: Cmax",2240 ng/mL
same,AUC(0-t),[3]; [16],35900 ng·h/mL
same,Tmax,[3]; [16],2.29 h
same,clearance,[3]; [16],33.9 mL/min
same,AUC(0-t),[3]; [17],36200 ng·h/mL
same,Tmax,[3]; [17],2.64 h
same,clearance,[3]; [17],76.1 mL/min
same,Tmax,[3]; [18],2.33 h
same,clearance,[3]; [18],76.2 mL/min
same,Cmax,"[3]; human, plasma, oral, Erlotinib D28, DL3 erlotinib 150 mg + foretinib 45 mg daily, N=6, read-out: Cmax",2470 ng/mL
same,PFS,[4],1.8 months
same,"RP2D, erlotinib","[1]; daily, plus crizotinib 150 mg BID",100 mg
same,"erlotinib exposure, pharmacokinetic interaction",[1]; with crizotinib,increased erlotinib exposure
same,"recommended phase II dose, erlotinib",[5],150 mg
COc1cc2c(Oc3ccc(NC(=O)C4(C(=O)Nc5ccc(F)cc5)CC4)cc3F)ccnc2cc1OCCCN1CCOCC1 [foretinib],"% receiving >=90% planned dose intensity, Foretinib Cycle 1","[2]; DL1 (N=9), 30/100 mg",100%
same,"% receiving >=90% planned dose intensity, Foretinib Cycle >= 2","[2]; DL1 (N=9), 30/100 mg",50%
same,"% receiving >=90% planned dose intensity, Foretinib Cycle 1","[2]; DL2 (n=15), 30/150 mg",67%
same,"% receiving >=90% planned dose intensity, Foretinib Cycle >= 2","[2]; DL2 (n=15), 30/150 mg",31%
same,"% receiving >=90% planned dose intensity, Foretinib Cycle 1","[2]; DL3 (N=7), 45/150 mg",86%
same,"% receiving >=90% planned dose intensity, Foretinib Cycle >= 2","[2]; DL3 (N=7), 45/150 mg",0
same,Cavg,[3]; [19],30.35 (SD 9.23) ng/mL
same,Clast,[3]; [19],27.29 (SD 10.66) ng/mL
same,Cmax Dose Norm,[3]; [19],1.45 (SD 0.59) ng/mL/mg
same,Cmin,[3]; [19],22.79 (SD 7.74) ng/mL
same,Tmin,[3]; [19],12.29 (SD 11.34) hr
same,Cavg,[3]; [20],29.17 (SD 13.58) ng/mL
same,Clast,[3]; [20],24.12 (SD 9.34) ng/mL
same,Cmax Dose Norm,[3]; [20],1.49 (SD 0.74) ng/mL/mg
same,Cmin,[3]; [20],22.47 (SD 10.61) ng/mL
same,Tmin,[3]; [20],13.36 (SD 12.23) hr
same,Cavg,[3]; [21],42.07 (SD 17.31) ng/mL
same,Clast,[3]; [21],34.22 (SD 17.3) ng/mL
same,Cmax Dose Norm,[3]; [21],1.21 (SD 0.4) ng/mL/mg
same,Cmin,[3]; [21],31.96 (SD 18.16) ng/mL
same,Tmin,[3]; [21],12.0 (SD 13.15) hr
same,AUC(0-t),[3]; [22],728 ng·h/mL
same,Tmax,[3]; [22],3.14 h
same,clearance,[3]; [22],419 mL/min
same,Cmax,"[3]; human, plasma, oral, Foretinib D28, DL1 foretinib 30 mg + erlotinib 100 mg daily, N=7, read-out: Cmax",43.4 ng/mL
same,AUC(0-t),[3]; [23],681 ng·h/mL
same,Tmax,[3]; [23],3.55 h
same,clearance,[3]; [23],492 mL/min
same,Cmax,"[3]; human, plasma, oral, Foretinib D28, DL2 foretinib 30 mg + erlotinib 150 mg daily, N=11, read-out: Cmax",44.8 ng/mL
same,AUC(0-t),[3]; [24],1010 ng·h/mL
same,Tmax,[3]; [24],3.5 h
same,clearance,[3]; [24],829 mL/min
same,Cmax,"[3]; human, plasma, oral, Foretinib D28, DL3 foretinib 45 mg + erlotinib 150 mg daily, N=6, read-out: Cmax",55.9 ng/mL
same,sensitivity when added to erlotinib,[6],significantly increases sensitivity
same,"recommended phase II dose, foretinib",[5],30 mg
